Experimental data: article PMC6449294, “SNAPshots of the MCHR1: a Comparison Between the PET-Tracers [^18F]FE@SNAP and [^11C]SNAP-7941” (Molecular Imaging and Biology, 2018)

Tests used:
MCHR1 = target: MCHR1; design: method as in PMID 28808288; conditions: previous experiments; read-out: Affinity to MCHR1 (Ki); cited from earlier work
[1] = target: T1, human serum albumin (HSA) (Homo sapiens, UniProt P02768); assay: Plasma protein binding using bioaffinity chromatography (CHIRALPAK HSA); assay type: in vitro ADME; conditions: bioaffinity chromatography on HSA stationary phase
T1 construct: purchased Daicel Chemical Industries CHIRALPAK HSA, column-batch H13L-2405
T1 sequence (P02768 25-609): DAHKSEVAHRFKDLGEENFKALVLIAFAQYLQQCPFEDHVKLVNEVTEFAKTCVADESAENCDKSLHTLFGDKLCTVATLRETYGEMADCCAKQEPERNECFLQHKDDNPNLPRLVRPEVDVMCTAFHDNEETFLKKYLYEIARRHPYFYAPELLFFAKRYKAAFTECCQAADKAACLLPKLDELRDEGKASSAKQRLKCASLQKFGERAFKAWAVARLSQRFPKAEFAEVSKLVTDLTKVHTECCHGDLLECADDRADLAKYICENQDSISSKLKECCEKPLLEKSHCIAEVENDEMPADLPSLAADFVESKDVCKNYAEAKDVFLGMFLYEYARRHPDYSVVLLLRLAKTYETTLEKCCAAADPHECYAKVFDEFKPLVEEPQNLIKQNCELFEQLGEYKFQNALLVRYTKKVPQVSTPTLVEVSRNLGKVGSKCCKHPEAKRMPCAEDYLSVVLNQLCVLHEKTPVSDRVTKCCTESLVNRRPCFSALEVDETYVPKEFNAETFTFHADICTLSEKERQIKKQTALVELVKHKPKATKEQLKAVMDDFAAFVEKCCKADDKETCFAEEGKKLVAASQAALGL
Experimental: The binding of (±)-SNAP-7941 and FE@SNAP to human serum albumin (HSA) was examined by bioaffinity chromatography according to a previously published manuscript. In short, the analytes were diluted in 2-propanol and ammonium acetate buffer (0.5 mg/ml) and injected on the CHIRALPAK®HSA stationary phase (50 × 3 mm, 5 μm pore size, column-batch: H13L-2405, Daicel Chemical Industries, West Chester, PA, USA). Prior the experiments, the column was calibrated with reference standards, and the resulting regression equation was used to convert the logarithmic capacity factors (log(k′)) to the percent of plasma protein binding (%PPB). The calibration curves, as well as the experiments, were performed by triplicate injections and at least three times.

In the case of `COCC1=C(C(=O)OC)[C@H](c2ccc(F)c(F)c2)N(C(=O)NCCCN2CCC(c3cccc(NC(C)=O)c3)CC2)C(=O)N1` (racemic) [(±)-SNAP-7941, reference compound], the Ki (MCHR1) is given as 3.91 ± 0.74 nM and the “Plasma protein binding (%PPB) / Binding to human serum albumin” value [1] is given as 80 ± 0.9%.
In the case of `COCC1=C(C(=O)OCCF)C(c2ccc(F)c(F)c2)N(C(=O)NCCCN2CCC(c3cccc(NC(C)=O)c3)CC2)C(=O)N1` (racemic) [FE@SNAP, (±)-(2-fluoroethyl)-3-{[(3-{4-[3-(acetylamino)phenyl]-1-piperidinyl}propyl)amin]carbonyl}-4-(3,4-difluorophenyl)-6-(methoxymethyl)-2-oxo-1,2,3,4-tetra-hydro-5-pyrimidenecarboxylate], the Ki (MCHR1) is listed as 9.98 ± 1.12 nM and the “Plasma protein binding (%PPB) / Binding to human serum albumin” value [1] is listed as 77 ± 0.2%.
